Blank lines part the entries; values can stand above or below the compound they belong to. The source made the active and inactive calls. No cut-off for these calls is given here.
What was measured:
Mus musculus [1] = test: Reduction in overnight food intake in wild-type mouse at 10 mg/kg; assay type: functional, organism-based; set-up: dose 10 mg/kg
[2] = target: T1, Gastrin/cholecystokinin type B receptor (Homo sapiens) (UniProt P32239); test: Inhibition of human CCK2 receptor at 10000 nM
T1 sequence (whole entry): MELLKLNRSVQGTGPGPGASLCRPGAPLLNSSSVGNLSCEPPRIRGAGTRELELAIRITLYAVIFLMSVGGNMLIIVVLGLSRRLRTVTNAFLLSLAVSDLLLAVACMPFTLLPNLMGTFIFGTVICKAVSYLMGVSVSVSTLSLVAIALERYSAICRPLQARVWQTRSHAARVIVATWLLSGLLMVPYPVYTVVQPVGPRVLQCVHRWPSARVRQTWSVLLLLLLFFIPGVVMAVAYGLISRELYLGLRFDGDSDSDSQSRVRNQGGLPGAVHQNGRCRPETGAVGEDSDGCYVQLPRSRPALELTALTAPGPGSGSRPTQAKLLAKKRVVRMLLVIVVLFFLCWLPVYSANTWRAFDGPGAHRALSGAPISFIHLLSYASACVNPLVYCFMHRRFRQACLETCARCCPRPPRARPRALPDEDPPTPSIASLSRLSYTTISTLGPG

[3] = target: T1, Gastrin/cholecystokinin type B receptor (Homo sapiens); test: Agonist activity against human CCK2 receptor; assay type: functional
[4] = target: T1, Gastrin/cholecystokinin type B receptor (Homo sapiens); test: Agonist activity against human CCK2 receptor assessed as receptor activation at 10000 nM; assay type: functional
Mus musculus [5] = test: Reduction in overnight food intake in CCK1 receptor deficient mouse at 10 mg/kg; assay type: functional, organism-based; set-up: dose 10 mg/kg
[6] = target: T2, Cholecystokinin receptor type A (Homo sapiens) (UniProt P32238); test: Agonist activity against human CCK1 receptor assessed as receptor activation at 10000 nM; assay type: functional
T2 sequence (whole entry): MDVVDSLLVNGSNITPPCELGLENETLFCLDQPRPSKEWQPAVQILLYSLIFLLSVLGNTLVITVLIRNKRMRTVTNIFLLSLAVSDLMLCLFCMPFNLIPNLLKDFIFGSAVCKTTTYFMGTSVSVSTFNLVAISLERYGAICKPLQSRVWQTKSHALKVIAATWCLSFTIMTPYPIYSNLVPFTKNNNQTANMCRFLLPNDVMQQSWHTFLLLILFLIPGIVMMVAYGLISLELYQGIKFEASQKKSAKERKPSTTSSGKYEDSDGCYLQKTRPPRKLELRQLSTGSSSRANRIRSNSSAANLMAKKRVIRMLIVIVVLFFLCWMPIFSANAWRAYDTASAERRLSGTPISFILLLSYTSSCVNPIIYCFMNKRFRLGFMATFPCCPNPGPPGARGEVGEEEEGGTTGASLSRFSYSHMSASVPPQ

[7] = target: Cholecystokinin receptor type A (Mus musculus, UniProt O08786); test: Agonist activity against mouse CCK1 receptor; assay type: functional
Chain of Cholecystokinin receptor type A (Mus musculus, UniProt O08786) (O08786 whole entry, looked up): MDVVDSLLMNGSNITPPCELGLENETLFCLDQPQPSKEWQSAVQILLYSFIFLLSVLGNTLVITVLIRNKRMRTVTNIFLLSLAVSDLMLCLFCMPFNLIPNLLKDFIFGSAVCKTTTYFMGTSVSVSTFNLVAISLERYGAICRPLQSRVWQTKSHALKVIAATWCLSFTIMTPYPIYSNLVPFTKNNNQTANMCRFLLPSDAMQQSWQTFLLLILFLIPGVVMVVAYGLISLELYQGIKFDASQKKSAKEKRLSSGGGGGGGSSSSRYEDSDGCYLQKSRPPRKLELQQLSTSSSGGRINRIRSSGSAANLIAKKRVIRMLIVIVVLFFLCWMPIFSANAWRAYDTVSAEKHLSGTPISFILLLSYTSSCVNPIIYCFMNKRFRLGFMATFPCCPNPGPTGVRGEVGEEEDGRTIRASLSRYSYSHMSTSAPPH

Mus musculus [8] = test: Reduction in overnight food intake in lean mouse at 0.3 mg/kg, po; assay type: functional; set-up: scale not given: the % may be the effect or the level left
Mus musculus [9] = test: Gallbladder emptying activity in mouse assessed as reduction of gallbladder weight at 0.001 mg/kg, po; assay type: functional; set-up: scale not given: the % may be the effect or the level left
Mus musculus [10] = test: Reduction in overnight food intake in lean mouse at 3 mg/kg, po; assay type: functional; set-up: scale not given: the % may be the effect or the level left
[11] = target: T3, Gastrin/cholecystokinin type B receptor (Homo sapiens, UniProt P32239); test: Inhibition of human CCK2 receptor
T3 sequence (P32239 whole entry): T1 sequence (whole entry)

[12] = target: T4, Cholecystokinin receptor type A (Homo sapiens, UniProt P32238); test: Agonist activity against human CCK1 receptor; assay type: functional
T4 sequence (P32238 whole entry): T2 sequence (whole entry)

[13] = target: T4, Cholecystokinin receptor type A; test: Inhibition of human CCK1 receptor
[14] = (§1) Cmax in mouse at 1.0 mg/kg, iv and 10 mg/kg, po; assay type: ADME, organism-based; details: in vivo
[15] = Clearance in mouse at 1.0 mg/kg, iv and 10 mg/kg, po; assay type: ADME, organism-based; details: in vivo
[16] = Oral bioavailability in mouse at 10 mg/kg; assay type: ADME, organism-based; details: in vivo
[17] = Half life in mouse at 1.0 mg/kg, iv and 10 mg/kg, po; assay type: ADME, organism-based; details: in vivo
[18] = Volume of distribution in mouse at 1.0 mg/kg, iv and 10 mg/kg, po; assay type: ADME, organism-based; details: in vivo
Mus musculus [19] = test: as §1; assay type: ADME, organism-based; details: in vivo
Mus musculus [20] = test: Gallbladder emptying activity in mouse assessed as reduction of gallbladder weight at 0.3 mg/kg, po; assay type: functional; set-up: scale not given: the % may be the effect or the level left
Mus musculus [21] = test: Gallbladder emptying activity in mouse assessed as reduction of gallbladder weight at 0.1 mg/kg, po; assay type: functional, organism-based; set-up: dose 0.1 mg/kg

EC50 [7]: 2.1 nM
SMILES: CCOc1cccc(-n2cc(C(=O)N3CCN(c4cnc5ccccc5c4)CC3)nc2-c2ccc(C)cc2)c1 [listing 1 of 3 here]

inhibition [2]: < 24%
Activity [3]: inactive
Activity [4]: < 36%
Activity [6]: 105%
SMILES: CCOc1cccc(-n2cc(C(=O)N3CCN(c4cc(C(=O)O)c5ccccc5c4)CC3)nc2-c2ccc(C)cc2)c1 [listing 1 of 2 here]
Activity (Mus musculus [1]): Active
Activity (Mus musculus [5]): inactive

IC50 [11]: > 10 µM
inhibition [2]: < 24%
Activity [3]: inactive
Activity [4]: < 36%
EC50 [12]: 0.53 nM
IC50 [13]: 0.57 nM
Activity [6]: 89%
SMILES: CCOc1cccc(-n2cc(C(=O)N3CCN(c4cnc5ccccc5c4)CC3)nc2-c2ccccc2F)c1

IC50 [11]: > 10 µM
Cmax [14]: 1100 nM
clearance [15]: 6.4 mL/min/kg
bioavailability [16]: 33%
half-life [17]: 162 min
Vd [18]: 0.73 L/kg
EC50 [12]: 0.048 nM
IC50 [13]: 0.08 nM
SMILES: CCOc1cccc(-n2cc(C(=O)N3CCN(c4cc(C(=O)O)c5ccccc5c4)CC3)nc2-c2ccc(F)cc2)c1

IC50 [11]: > 10 µM
inhibition [2]: < 24%
Activity [3]: inactive
Activity [4]: < 36%
EC50 [12]: 0.12 nM
IC50 [13]: 0.2 nM
Activity [6]: 94%
SMILES: Cc1ccc(-c2nc(C(=O)N3CCN(c4cnc5ccccc5c4)CC3)cn2-c2ccc3c(c2)OCCO3)cc1

EC50 [7]: 0.3 nM
SMILES: CCOc1cccc(-n2cc(C(=O)N3CCN(c4cc(C(=O)O)c5ccccc5c4)CC3)nc2-c2ccc(C)cc2F)c1.O=C(O)C(F)(F)F
Activity (Mus musculus [8]): 13%
Activity (Mus musculus [9]): 77%
Activity (Mus musculus [10]): 86%

IC50 [11]: > 10 µM
inhibition [2]: < 24%
Activity [3]: inactive
Activity [4]: < 36%
EC50 [12]: 0.077 nM
IC50 [13]: 0.03 nM
Activity [6]: 71%
SMILES: Cc1ccc(-c2nc(C(=O)N3CCN(c4cc(C(=O)O)c5ccccc5c4)CC3)cn2-c2ccc3c(c2)OCCO3)c(F)c1

EC50 [7]: 1.5 nM
SMILES: CCOc1cccc(-n2cc(C(=O)N3CCN(c4cc(C(=O)O)c5ccccc5c4)CC3)nc2-c2ccc(F)cc2)c1.O=C(O)C(F)(F)F
Activity (Mus musculus [9]): 69%
Activity (Mus musculus [10]): 73%

IC50 [11]: > 10 µM
inhibition [2]: < 24%
Activity [3]: inactive
Activity [4]: < 36%
EC50 [12]: 0.053 nM
IC50 [13]: 0.07 nM
Activity [6]: 76%
SMILES: CCOc1cccc(-n2cc(C(=O)N3CCN(c4cc(C(=O)O)c5ccccc5c4)CC3)nc2-c2ccc(F)cc2F)c1

The remaining lines, values behind:

SMILES: CCOc1cccc(-n2cc(C(=O)N3CCN(c4cc(C(=O)O)c5ccccc5c4)CC3)nc2-c2ccc(C)cc2F)c1 [listing 1 of 2 here]
Activity (Mus musculus [1]): Active
inhibition [2]: < 24%
Activity [3]: inactive
Activity [4]: < 36%
Activity (Mus musculus [5]): inactive
Activity [6]: 73%

SMILES: CCOc1cccc(-n2cc(C(=O)N3CCN(c4cc(C(=O)O)c5ccccc5c4)CC3)nc2-c2ccc(C)cc2)c1.O=C(O)C(F)(F)F
Activity (Mus musculus [8]): 18%
Activity (Mus musculus [9]): 72%
Activity (Mus musculus [10]): 82%
EC50 [7]: 1.3 nM

SMILES: CCOc1cccc(-n2cc(C(=O)N3CCN(c4cc(C(=O)O)c5ccccc5c4)CC3)nc2-c2ccc(C)cc2F)c1 [listing 2 of 2 here]
IC50 [11]: > 10 µM
Cmax [14]: 820 nM
clearance [15]: 10.4 mL/min/kg
bioavailability [16]: 22%
half-life [17]: 102 min
Vd [18]: 0.59 L/kg
EC50 [12]: 0.056 nM
IC50 [13]: 0.06 nM

SMILES: CCOc1cccc(-n2cc(C(=O)N3CCN(c4cc(C(=O)[O-])c5ccccc5c4)CC3)nc2-c2ccc(C)cc2)c1.[Na+]
Activity (Mus musculus [8]): 29%
Cmax (Mus musculus [19]): 4.9 µM
clearance [15]: 3.1 mL/min/kg
bioavailability [16]: 43%
half-life [17]: 204 min
Vd [18]: 0.56 L/kg
Activity (Mus musculus [10]): 78%
EC50 [7]: 0.78 nM

SMILES: O=C(O)C(F)(F)F.O=C(O)c1cc(N2CCN(C(=O)c3cn(-c4ccc5c(c4)OCCO5)c(-c4ccc(F)cc4)n3)CC2)cc2ccccc12
Activity (Mus musculus [8]): 16%
Activity (Mus musculus [9]): 88%
Activity (Mus musculus [10]): 96%
EC50 [7]: 0.14 nM

SMILES: Cc1ccc(-c2nc(C(=O)N3CCN(c4cc(C(=O)O)c5ccccc5c4)CC3)cn2-c2ccc3c(c2)OCCO3)cc1
IC50 [11]: > 10 µM
inhibition [2]: < 24%
Activity [3]: inactive
Activity [4]: < 36%
EC50 [12]: 0.14 nM
IC50 [13]: 0.14 nM
Activity [6]: 107%

SMILES: CCOc1cccc(-n2cc(C(=O)N3CCN(c4cnc5ccccc5c4)CC3)nc2-c2ccc(C)cc2F)c1
IC50 [11]: > 10 µM
inhibition [2]: < 24%
Activity [3]: inactive
Activity [4]: < 36%
EC50 [12]: 0.13 nM
IC50 [13]: 0.24 nM
Activity [6]: 86%

SMILES: CCOc1cccc(-n2cc(C(=O)N3CCN(c4cc(C(=O)O)c5ccccc5c4)CC3)nc2-c2ccc(C)cc2)c1 [listing 2 of 2 here]
IC50 [11]: > 10 µM
Cmax [14]: 280 nM
clearance [15]: 5.3 mL/min/kg
bioavailability [16]: 7%
half-life [17]: 210 min
Vd [18]: 0.47 L/kg
EC50 [12]: 0.094 nM
IC50 [13]: 0.12 nM

SMILES: CCOc1cccc(-n2cc(C(=O)N3CCN(c4cnc5ccccc5c4)CC3)nc2-c2ccc(C)cc2)c1 [listing 2 of 3 here]
IC50 [11]: > 10 µM
EC50 [12]: 0.73 nM
Activity (Mus musculus [20]): 59%
IC50 [13]: 0.45 nM

SMILES: CCOc1cccc(-n2cc(C(=O)N3CCN(c4cnc5ccccc5c4)CC3)nc2-c2ccc(C)cc2)c1 [listing 3 of 3 here]
inhibition [2]: < 24%
Activity [3]: inactive
Activity (Mus musculus [21]): inactive
Activity [4]: < 36%
Activity [6]: 105%
